Data: the NIST ThermoML archive (doi:10.1016/j.jct.2015.08.014)

Settings: Liquid; for electrical conductivity: Alternating current cell with electrodes; for viscosity: Capillary tube (Ostwald / Ubbelohde) method; for mass density: Vibrating tube method

CCCC[N+]1(C)CCCC1.N#CN=C=[N-] [1-butyl-1-methylpyrrolidinium dicyanamide]
electrical conductivity [S/m], 100 kPa
Settings	273.15 K	283.15 K	293.15 K	298.15 K	303.15 K	313.15 K	323.15 K
Frequency=0.0005 MHz	0.522	0.786	1.122	1.315	1.525	1.99	2.525
Frequency=0.001 MHz	0.522	0.786	1.122	1.316	1.526	2	2.526
Frequency=0.0015 MHz	0.522	0.786	1.123	1.316	1.526	2	2.527
Frequency=0.002 MHz	0.522	0.786	1.123	1.316	1.527	2	2.528
Frequency=0.0025 MHz	0.522	0.786	1.123	1.317	1.527	2	2.528
Frequency=0.003 MHz	0.522	0.786	1.123	1.317	1.527	2	2.528
Frequency=0.00347222 MHz	0.523	0.786	1.123	1.317	1.527	2	2.528
Frequency=0.004 MHz	0.523	0.786	1.123	1.317	1.527	2	2.529
Frequency=0.00446429 MHz	0.523	0.786	1.123	1.317	1.527	2	2.529
Frequency=0.005 MHz	0.523	0.786	1.123	1.317	1.527	2	2.529
Frequency=0.005454 MHz	0.523	0.786	1.123	1.317	1.527	2	2.529
Frequency=0.006 MHz	0.523	0.786	1.123	1.317	1.527	2	2.529
Frequency=0.00652174 MHz	0.523	0.786	1.123	1.317	1.527	2	2.529
Frequency=0.00694444 MHz	0.523	0.786	1.123	1.317	1.527	2	2.529
Frequency=0.0075 MHz	0.523	0.786	1.123	1.318	1.527	2	2.529
Frequency=0.008 MHz	0.523	0.786	1.123	1.318	1.527	2	2.529
Frequency=0.00857143 MHz	0.523	0.786	1.123	1.318	1.527	2	2.529
Frequency=0.00892857 MHz	0.523	0.786	1.124	1.318	1.527	2	2.529
Frequency=0.00961538 MHz	0.523	0.786	1.124	1.318	1.527	2	2.529
Frequency=0.01 MHz	0.523	0.786	1.124	1.318	1.527	2	2.529

101.33 kPa
Settings	electrical conductivity [S/m]	mass density [kg/m3]	viscosity [mPa·s]
273.15 K	0.523	1027.69	93.95
278.15 K	0.645	1024.82	74.27
283.15 K	0.786	1021.96	59.6
288.15 K	0.943	1019.11	48.6
293.15 K	1.123	1016.28	40.25
298.15 K	1.317	1013.45	33.71
303.15 K	1.527	1010.64	28.53
308.15 K	1.75	1007.84	24.53
313.15 K	2	1005.06	21.07
318.15 K	2.25	1002.28	18.37
323.15 K	2.529	999.525	16.15
328.15 K	–	996.781	–
333.15 K	–	994.049	–
